Laboratory results published in PubChem BioAssay (NCI).
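Each compound was tested at five concentrations against cells in 96-well plates for 48 hours. GI50 marks 50% less growth. TGI marks complete inhibition of growth.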

Assays:
Assay in all cases: NCI-60 cell line screen, 48 h
HS 578T breast = tested on: HS 578T breast
MALME-3M melanoma = tested on: MALME-3M melanoma
CAKI-1 renal = tested on: CAKI-1 renal
SK-MEL-28 melanoma = tested on: SK-MEL-28 melanoma
HCC-2998 colon = tested on: HCC-2998 colon
U251 CNS = tested on: U251 CNS
UACC-62 melanoma = tested on: UACC-62 melanoma
RXF 393 renal = tested on: RXF 393 renal
HCT-15 colon = tested on: HCT-15 colon
CCRF-CEM leukemia = tested on: CCRF-CEM leukemia
SN12C renal = tested on: SN12C renal
SNB-75 CNS = tested on: SNB-75 CNS
IGROV1 ovarian = tested on: IGROV1 ovarian
SK-MEL-5 melanoma = tested on: SK-MEL-5 melanoma
OVCAR-5 ovarian = tested on: OVCAR-5 ovarian
NCI/ADR-RES ovarian = tested on: NCI/ADR-RES ovarian
KM12 colon = tested on: KM12 colon
MOLT-4 leukemia = tested on: MOLT-4 leukemia
OVCAR-8 ovarian = tested on: OVCAR-8 ovarian
HOP-62 NSCLC = tested on: HOP-62 NSCLC
NCI-H23 lung = tested on: NCI-H23 lung
NCI-H226 lung = tested on: NCI-H226 lung
BT-549 breast = tested on: BT-549 breast
A549 NSCLC = tested on: A549 NSCLC
HT29 colon = tested on: HT29 colon
MDA-MB-435 = tested on: MDA-MB-435
OVCAR-4 ovarian = tested on: OVCAR-4 ovarian
SF-539 CNS = tested on: SF-539 CNS
SF-295 CNS = tested on: SF-295 CNS

Structure (SMILES): CS(=O)(=O)Nc1ccc(Nc2c3ccccc3nc3cc(N)ccc23)cc1
- TGI (HS 578T breast): 13.4 µM
- GI50 (MALME-3M melanoma): 0.62 µM
- TGI (MALME-3M melanoma): 3.66 µM
- GI50 (CAKI-1 renal): 0.319 µM
- TGI (CAKI-1 renal): 13 µM
- GI50 (SK-MEL-28 melanoma): 1.9 µM
- TGI (SK-MEL-28 melanoma): 16.2 µM
- GI50 (HCC-2998 colon): 5.22 µM
- TGI (HCC-2998 colon): 24.4 µM
- GI50 (U251 CNS): 0.0794 µM
- TGI (U251 CNS): 1.3 µM
- GI50 (UACC-62 melanoma): 0.555 µM
- TGI (UACC-62 melanoma): 14.8 µM
- GI50 (RXF 393 renal): 12.5 µM
- TGI (RXF 393 renal): 34.9 µM
- GI50 (HCT-15 colon): 11 µM
- TGI (HCT-15 colon): > 100 µM
- GI50 (CCRF-CEM leukemia): 0.0776 µM
- TGI (CCRF-CEM leukemia): 2.04 µM
- GI50 (SN12C renal): 0.15 µM
- TGI (SN12C renal): 4.88 µM
- GI50 (SNB-75 CNS): 0.726 µM
- TGI (SNB-75 CNS): 12.4 µM
- GI50 (IGROV1 ovarian): 5.38 µM
- TGI (IGROV1 ovarian): > 73.6 µM
- GI50 (SK-MEL-5 melanoma): 0.615 µM
- TGI (SK-MEL-5 melanoma): 5.45 µM
- GI50 (OVCAR-5 ovarian): 5.57 µM
- TGI (OVCAR-5 ovarian): 39.7 µM
- GI50 (NCI/ADR-RES ovarian): > 100 µM
- TGI (NCI/ADR-RES ovarian): > 100 µM
- GI50 (KM12 colon): 0.499 µM
- TGI (KM12 colon): 7.14 µM
- GI50 (MOLT-4 leukemia): 0.0194 µM
- TGI (MOLT-4 leukemia): 0.987 µM
- GI50 (OVCAR-8 ovarian): 0.376 µM
- TGI (OVCAR-8 ovarian): 22.2 µM
- GI50 (HOP-62 NSCLC): 0.26 µM
- TGI (HOP-62 NSCLC): 10.2 µM
- GI50 (NCI-H23 lung): 0.436 µM
- TGI (NCI-H23 lung): 12.8 µM
- GI50 (NCI-H226 lung): 0.246 µM
- TGI (NCI-H226 lung): 3.89 µM
- GI50 (BT-549 breast): 1.35 µM
- TGI (BT-549 breast): 8.41 µM
- GI50 (A549 NSCLC): 0.062 µM
- TGI (A549 NSCLC): 15.6 µM
- GI50 (HT29 colon): 5.15 µM
- TGI (HT29 colon): 31.7 µM
- GI50 (MDA-MB-435): 5.79 µM
- TGI (MDA-MB-435): 21.6 µM
- GI50 (OVCAR-4 ovarian): 2.92 µM
- TGI (OVCAR-4 ovarian): 26.8 µM
- GI50 (SF-539 CNS): 0.531 µM
- TGI (SF-539 CNS): 9.47 µM
- GI50 (SF-295 CNS): 0.227 µM
- TGI (SF-295 CNS): 6.79 µM
